Results reported in BindingDB's records for doi:10.1021/jm00050a008 (University of North Carolina, 1995).

Assay: The compound was tested for affinity towards sigma-3 receptor

SMILES	IC50 [nM]
CCCN(CCC)C1Cc2ccccc2C(c2ccccc2)C1 (stereo not given)	13
CCCN(C)C1Cc2ccccc2C(c2ccccc2)C1 (stereo not given)	4.5

Results, then the compound that gave them:

IC50 [nM]	SMILES
79	CNC1Cc2ccccc2C(c2ccccc2)C1 (stereo not given)
59	CCCNC1Cc2ccccc2C(c2ccccc2)C1 (stereo not given)
2.2	CCN(CC)C1Cc2ccccc2C(c2ccccc2)C1 (trans isomer)
